Experimental data from PubChem BioAssay (NCI).
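1) Cells in 96-well plates. 2) Compound, 48 h, 5 concentrations. 3) Linear interpolation between surrounding doses. 4) Unreached endpoint = highest concentration. TGI marks complete inhibition of growth.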

Assays:
Assay in all cases: NCI-60 cell line screen, 48 h
[1] = test system: 786-0 renal
[2] = test system: A498 renal
[3] = test system: A549 NSCLC
[4] = test system: ACHN renal
[5] = test system: BT-549 breast
[6] = test system: CAKI-1 renal
[7] = test system: CCRF-CEM leukemia
[8] = test system: COLO 205 colon
[9] = test system: DU-145 prostate
[10] = test system: EKVX NSCLC
[11] = test system: HCC-2998 colon
[12] = test system: HCT-116 colon
[13] = test system: HCT-15 colon
[14] = test system: HL-60(TB) leukemia
[15] = test system: HOP-62 NSCLC
[16] = test system: HOP-92 NSCLC
[17] = test system: HS 578T breast
[18] = test system: HT29 colon
[19] = test system: IGROV1 ovarian
[20] = test system: K-562 leukemia
[21] = test system: KM12 colon
[22] = test system: LOX IMVI melanoma
[23] = test system: M14 melanoma
[24] = test system: MALME-3M melanoma
[25] = test system: MCF7 breast
[26] = test system: MDA-MB-231 breast
[27] = test system: MDA-MB-435
[28] = test system: MDA-N
[29] = test system: MOLT-4 leukemia
[30] = test system: NCI-H226 lung
[31] = test system: NCI-H23 lung
[32] = test system: NCI-H460 lung
[33] = test system: NCI-H522 lung
[34] = test system: NCI/ADR-RES ovarian
[35] = test system: OVCAR-3 ovarian
[36] = test system: OVCAR-4 ovarian
[37] = test system: OVCAR-5 ovarian
[38] = test system: OVCAR-8 ovarian
[39] = test system: PC-3 prostate
[40] = test system: RPMI-8226 leukemia
[41] = test system: RXF 393 renal
[42] = test system: SF-268 CNS
[43] = test system: SF-295 CNS
[44] = test system: SF-539 CNS
[45] = test system: SK-MEL-2 melanoma
[46] = test system: SK-MEL-28 melanoma
[47] = test system: SK-MEL-5 melanoma
[48] = test system: SK-OV-3 ovarian
[49] = test system: SN12C renal
[50] = test system: SNB-19 CNS
[51] = test system: SNB-75 CNS
[52] = test system: SR leukemia
[53] = test system: SW-620 colon
[54] = test system: T-47D breast
[55] = test system: TK-10 renal
[56] = test system: U251 CNS
[57] = test system: UACC-257 melanoma
[58] = test system: UACC-62 melanoma
[59] = test system: UO-31 renal

Compound `CCCSc1ccc2[nH]c(N3C(=O)/C(=C/c4cc(OC)c(OC)c(OC)c4)N=C3c3ccccc3)cc2c1` has a TGI [1] of over 25 µM, a TGI [2] of over 25.8 µM and a TGI [3] of over 25.3 µM. It also gave a TGI [4] of over 37.5 µM, a TGI [5] of 37.4 µM and a TGI [6] of over 37.5 µM. For the same compound, the TGI [7] was over 32.9 µM, the TGI [8] was over 30.2 µM and the TGI [9] was over 37.5 µM. It also gave a TGI [10] of over 37.5 µM, a TGI [11] of over 32.6 µM and a TGI [12] of over 37.5 µM. For the same compound, the TGI [13] was over 37.5 µM, the TGI [14] was 17.3 µM and the TGI [15] was over 19.2 µM. For the same compound, the TGI [16] was 36.6 µM, the TGI [17] was over 37.5 µM and the TGI [18] was over 37.5 µM. It also gave a TGI [19] of over 37.5 µM, a TGI [20] of over 35.3 µM and a TGI [21] of over 37.5 µM. The TGI [22] was over 37.5 µM, the TGI [23] was over 30.8 µM and the TGI [24] was over 37.5 µM. It also gave a TGI [25] of over 37.5 µM, a TGI [26] of over 37.5 µM and a TGI [27] of 16 µM. It also gave a TGI [28] of 12.3 µM, a TGI [29] of over 37.5 µM and a TGI [30] of over 37.5 µM. The TGI [31] was over 37.5 µM, the TGI [32] was over 37.5 µM and the TGI [33] was 26.8 µM. For the same compound, the TGI [34] was over 34.2 µM, the TGI [35] was 26.5 µM and the TGI [36] was over 37.5 µM. For the same compound, the TGI [37] was over 37.5 µM, the TGI [38] was over 37.5 µM and the TGI [39] was over 37.5 µM. For the same compound, the TGI [40] was 27.1 µM, the TGI [41] was 19.9 µM and the TGI [42] was over 37.5 µM. The TGI [43] was 37.1 µM, the TGI [44] was 23.6 µM and the TGI [45] was over 37.5 µM. The TGI [46] was over 37.5 µM, the TGI [47] was 19 µM and the TGI [48] was over 25.3 µM. It also gave a TGI [49] of over 37.5 µM, a TGI [50] of over 37.5 µM and a TGI [51] of 33.5 µM. The TGI [52] was over 34.9 µM, the TGI [53] was over 37.5 µM and the TGI [54] was 37 µM. It also gave a TGI [55] of over 37.5 µM, a TGI [56] of over 37.5 µM and a TGI [57] of over 37.5 µM. The TGI [58] was over 37.5 µM and the TGI [59] was over 37.5 µM.

With `Nc1ccc(Oc2ccc(C34CC5CC(C3)CC(c3ccc(Oc6ccc(N)cc6)cc3)(C5)C4)cc2)cc1` the TGI [1] was over 52.1 µM, the TGI [2] was 27.3 µM and the TGI [3] was over 60.7 µM. For the same compound, the TGI [4] was over 51.4 µM, the TGI [5] was 33.6 µM and the TGI [6] was 46.3 µM. The TGI [7] was over 100 µM, the TGI [8] was over 58.7 µM and the TGI [9] was 33.3 µM. The TGI [10] was over 66.5 µM, the TGI [11] was 19.3 µM and the TGI [12] was over 44.8 µM. For the same compound, the TGI [13] was over 63.9 µM, the TGI [14] was over 66.9 µM and the TGI [15] was over 56.7 µM. For the same compound, the TGI [16] was 25.8 µM, the TGI [17] was over 62.8 µM and the TGI [18] was over 55 µM. The TGI [19] was 15.4 µM, the TGI [20] was over 100 µM and the TGI [21] was over 45.4 µM. The TGI [22] was 20.1 µM, the TGI [23] was 23.5 µM and the TGI [24] was 28.7 µM. The TGI [25] was 21.6 µM, the TGI [26] was 32.9 µM and the TGI [27] was 40.7 µM. It also gave a TGI [28] of over 45.1 µM, a TGI [29] of over 100 µM and a TGI [30] of 75.2 µM. The TGI [31] was 37.4 µM, the TGI [32] was 22.6 µM and the TGI [33] was 38.7 µM. For the same compound, the TGI [34] was over 60.4 µM, the TGI [35] was over 32.3 µM and the TGI [36] was 51.2 µM. The TGI [37] was 62.2 µM, the TGI [38] was 23.6 µM and the TGI [39] was 25.7 µM. For the same compound, the TGI [40] was over 100 µM, the TGI [41] was over 51.9 µM and the TGI [42] was over 51.7 µM. The TGI [43] was over 56.4 µM, the TGI [44] was 36.4 µM and the TGI [45] was 36.2 µM. It also gave a TGI [46] of over 72.1 µM, a TGI [47] of 26.2 µM and a TGI [48] of over 70.1 µM. It also gave a TGI [49] of over 55.2 µM, a TGI [50] of 38.7 µM and a TGI [51] of 90.5 µM. For the same compound, the TGI [52] was over 100 µM, the TGI [53] was over 100 µM and the TGI [54] was 66.3 µM. It also gave a TGI [55] of over 39.4 µM, a TGI [56] of 21.6 µM and a TGI [57] of 40.9 µM. It also gave a TGI [58] of 27.3 µM and a TGI [59] of over 53.4 µM.
